T/C data for 19 compounds are collected here from PubChem BioAssay AID256 (DTP/NCI, 2004).

The assay relates to CD2F1 mice, L1210 leukemia ip, survival T/C. In words: NCI In Vivo Anticancer Drug Screen. Data for tumor model L1210 Leukemia (intraperitoneal) in CD2F1 (CDF1) mice. The note with it: higher = longer survival. As to the method:
The antitumor activity of compounds was measured in mice bearing transplantable tumors. Survival or tumor size were measured and the results are expressed as the measurement made in the treated group (T) divided by the measurement made in the vehicle treated control group (C). The tumor model used in this assay is L1210 Leukemia (intraperitoneal) in CD2F1 (CDF1) mice

Setting [1] is: endpoint: mean survival time, dose: 12.5 mg/kg/injection, schedule: Q04DX003 (ip), vehicle: saline with Tween-80.
[2] abbreviates: endpoint: mean survival time, dose: 100.0 mg/kg/injection, schedule: Q01DX009 (ip), vehicle: saline with Tween-80.
The mark [3] stands for this setting: endpoint: mean survival time, dose: 100.0 mg/kg/injection, schedule: Q04DX003 (ip), vehicle: saline with Tween-80.
Where [4] appears, read: endpoint: mean survival time, dose: 200.0 mg/kg/injection, schedule: Q01DX009 (ip), vehicle: saline with Tween-80.
Where [5] appears, read: endpoint: mean survival time, dose: 200.0 mg/kg/injection, schedule: Q04DX003 (ip), vehicle: saline with Tween-80.
The mark [6] stands for this setting: endpoint: mean survival time, dose: 400.0 mg/kg/injection, schedule: Q01DX009 (ip), vehicle: saline with Tween-80.
The mark [7] stands for this setting: endpoint: mean survival time, dose: 400.0 mg/kg/injection, schedule: Q04DX003 (ip), vehicle: saline with Tween-80.
The mark [8] stands for this setting: endpoint: mean survival time, dose: 100.0 mg/kg/injection, schedule: Q04DX002 (ip), vehicle: saline with Tween-80.
Setting [9] is: endpoint: mean survival time, dose: 200.0 mg/kg/injection, schedule: Q04DX002 (ip), vehicle: saline with Tween-80.
The mark [10] stands for this setting: endpoint: mean survival time, dose: 400.0 mg/kg/injection, schedule: Q04DX002 (ip), vehicle: saline with Tween-80.
The mark [11] stands for this setting: endpoint: mean survival time, dose: 50.0 mg/kg/injection, schedule: Q01DX009 (ip), vehicle: saline with Tween-80.
[12] abbreviates: endpoint: mean survival time, dose: 100.0 mg/kg/injection, schedule: Q01DX009 (ip), vehicle: other.
Setting [13] is: endpoint: mean survival time, dose: 200.0 mg/kg/injection, schedule: Q01DX009 (ip), vehicle: other.
Where [14] appears, read: endpoint: mean survival time, dose: 400.0 mg/kg/injection, schedule: Q01DX009 (ip), vehicle: other.

Structures are written as SMILES. Values joined by “and” are separate entries in the source; they are usually repeats but may differ in a detail not shown here. Identical values can stand only once. Toxic doses and inconclusive results are not listed.

As for `N#CC[CH2][Sn]([I])([c]1ccccc1)[c]1ccccc1`, the T/C by setting is: (endpoint: mean survival time, dose: 6.25 mg/kg/injection, schedule: Q04DX003 (ip), vehicle: saline with Tween-80) 97 % of control; under setting [1], 97 % of control.

In the case of `NNC(=O)c1ccc(C(=O)NN)cc1`, the T/C is 91 % of control (endpoint: mean survival time, dose: 100.0 mg/kg/injection, schedule: Q01DX001 (ip), vehicle: Klucel (hydroxypropylcellulose) (HPC)); 97 % of control under setting [2]; 94 % of control under setting [3]; 100 % of control (endpoint: mean survival time, dose: 200.0 mg/kg/injection, schedule: Q01DX001 (ip), vehicle: Klucel (hydroxypropylcellulose) (HPC)); 107 % of control under setting [4]; 96 % of control under setting [5]. In addition, the T/C is, setting by setting: (endpoint: mean survival time, dose: 400.0 mg/kg/injection, schedule: Q01DX001 (ip), vehicle: Klucel (hydroxypropylcellulose) (HPC)) 88 % of control; under setting [6], 104 % of control; under setting [7], 96 % of control.

With `CCCCS(=O)(=O)CC(O)c1ccccc1` (stereo not drawn), the T/C by setting is: under setting [8], 115 % of control; under setting [9], 101 % of control; under setting [10], 104 % of control.

On to `CCOC(=O)CNC(=O)Nc1ccccc1OCC`, for which the T/C is 89 % of control under setting [11], 89 % of control under setting [2] and 93 % of control under setting [4].

For `O=c1[nH]cnc2c1nnn2C1OC(CO)C(O)C1O` (stereo not drawn), the T/C is 121 % of control (endpoint: median survival time, dose: 50.0 mg/kg/injection, schedule: Q01DX005 (ip), vehicle: saline); 156 % of control (endpoint: median survival time, dose: 200.0 mg/kg/injection, schedule: Q01DX005 (ip), vehicle: saline); 160 % of control (endpoint: median survival time, dose: 400.0 mg/kg/injection, schedule: Q01DX005 (ip), vehicle: saline); 90 % of control (endpoint: median survival time, dose: 400.0 mg/kg/injection, schedule: Q01DX005 (ip), vehicle: suspension in saline); 111 % of control (endpoint: median survival time, dose: 800.0 mg/kg/injection, schedule: Q01DX005 (ip), vehicle: saline).

Take `CCN(CC)C(=O)C(Cc1ccc(OC)c(OC)c1)C(Cc1ccc(OC)c(OC)c1)C(=O)O` (stereo not drawn): the T/C is, setting by setting: under setting [12], 98 % of control; under setting [13], 98 % of control; under setting [14], 95 % of control.

As for `CNC(=O)Nc1ccc(C(=O)NC(C)C)cc1`, the T/C by setting is: (endpoint: mean survival time, dose: 22.0 mg/kg/injection, schedule: Q01DX009 (ip), vehicle: other) 93 % of control; (endpoint: mean survival time, dose: 33.0 mg/kg/injection, schedule: Q01DX009 (ip), vehicle: other) 102 % of control; (endpoint: mean survival time, dose: 50.0 mg/kg/injection, schedule: Q01DX009 (ip), vehicle: other) 94 % of control; under setting [12], 95 % of control; under setting [13], 91 % of control; under setting [14], 96 % of control. In addition, the T/C (endpoint: mean survival time, dose: 800.0 mg/kg/injection, schedule: Q01DX009 (ip), vehicle: other) is 100 % of control.

In the case of `C/C=C/COc1c(C)cc(C)cc1/C=C/C`, the T/C is 94 % of control under setting [8], 94 % of control under setting [9] and 102 % of control under setting [10].

As for `O=C(NCCCCC(Cl)C(=O)O)c1ccccc1` (stereo not drawn), the T/C is, setting by setting: under setting [2], 98 % of control; under setting [4], 100 % of control; under setting [6], 100 % of control.

In the case of `Cc1cccc(CN=C(N)CCl)n1`, the T/C is 111 % of control (endpoint: mean survival time, dose: 100.0 mg/kg/injection, schedule: Q04DX002 (ip), vehicle: saline) and 116 % of control (endpoint: mean survival time, dose: 200.0 mg/kg/injection, schedule: Q04DX002 (ip), vehicle: saline).

On to `NNC(=O)CCCCCCCCCCCCCO`, for which the T/C (endpoint: mean survival time, dose: 50.0 mg/kg/injection, schedule: Q01DX001 (ip), vehicle: saline with Tween-80) is 98 % of control; the T/C (endpoint: mean survival time, dose: 100.0 mg/kg/injection, schedule: Q01DX001 (ip), vehicle: saline with Tween-80) is 101 % of control; the T/C (endpoint: mean survival time, dose: 200.0 mg/kg/injection, schedule: Q01DX001 (ip), vehicle: saline with Tween-80) is 101 % of control.

On to `O=C(O)C1CCC(C(=O)O)CC1.[NH-]C1CCCCC1[NH-].[Pt+2]` (stereo not drawn), for which the T/C reads like this: (endpoint: median survival time, dose: 3.12 mg/kg/injection, schedule: Q04DX003 (ip), vehicle: saline) 123 % of control and 112 % of control; (endpoint: median survival time, dose: 6.25 mg/kg/injection, schedule: Q04DX003 (ip), vehicle: saline) 122 % of control; (endpoint: median survival time, dose: 25.0 mg/kg/injection, schedule: Q04DX003 (ip), vehicle: saline) 168 % of control; (endpoint: median survival time, dose: 50.0 mg/kg/injection, schedule: Q04DX003 (ip), vehicle: saline) 207 % of control and 237 % of control; (endpoint: median survival time, dose: 100.0 mg/kg/injection, schedule: Q04DX003 (ip), vehicle: saline) 287 % of control and 365 % of control; (endpoint: median survival time, dose: 200.0 mg/kg/injection, schedule: Q04DX003 (ip), vehicle: saline) 87 % of control and 89 % of control.

For the compound `O=C(O)/C=N/NS(=O)(=O)c1ccc(Cl)cc1`, the T/C reads like this: (endpoint: mean survival time, dose: 12.5 mg/kg/injection, schedule: Q04DX003 (ip), vehicle: other) 97 % of control; (endpoint: mean survival time, dose: 25.0 mg/kg/injection, schedule: Q04DX003 (ip), vehicle: other) 105 % of control; (endpoint: mean survival time, dose: 50.0 mg/kg/injection, schedule: Q04DX003 (ip), vehicle: other) 118 % of control and 122 % of control; (endpoint: mean survival time, dose: 200.0 mg/kg/injection, schedule: Q04DX003 (ip), vehicle: other) 174 % of control.

Turning to `CN(C)/C=C(\C#N)C=O`, the T/C (endpoint: mean survival time, dose: 18.75 mg/kg/injection, schedule: Q01DX009 (ip), vehicle: saline with Tween-80) is 95 % of control; the T/C (endpoint: mean survival time, dose: 37.5 mg/kg/injection, schedule: Q01DX009 (ip), vehicle: saline with Tween-80) was 101 % of control; the T/C (endpoint: mean survival time, dose: 75.0 mg/kg/injection, schedule: Q01DX009 (ip), vehicle: saline with Tween-80) is 101 % of control; the T/C (endpoint: mean survival time, dose: 75.0 mg/kg/injection, schedule: Q04DX003 (ip), vehicle: saline with Tween-80) is 87 % of control.

As to `C#CCOCC1CO1` (stereo not drawn), the T/C (endpoint: mean survival time, dose: 75.0 mg/kg/injection, schedule: Q01DX001 (ip), vehicle: saline) was 95 % of control and the T/C (endpoint: mean survival time, dose: 150.0 mg/kg/injection, schedule: Q01DX001 (ip), vehicle: saline) was 87 % of control.

For `COc1cc(C=Nc2cc(Cl)ccc2-n2ccnc2C)ccc1N(CCCl)CCCl`, the T/C is 117 % of control under setting [1]; 113 % of control (endpoint: mean survival time, dose: 25.0 mg/kg/injection, schedule: Q04DX003 (ip), vehicle: saline with Tween-80); 118 % of control (endpoint: mean survival time, dose: 50.0 mg/kg/injection, schedule: Q04DX003 (ip), vehicle: saline with Tween-80); 115 % of control under setting [5]; 89 % of control under setting [7].

`CCOC(=O)c1c(Cl)nc2ccccc2c1Cl`: the T/C reads like this: under setting [11], 105 % of control; under setting [2], 105 % of control; under setting [4], 94 % of control.

In the case of `c1ccc(CNc2nnnn2C2CCCCC2)cc1`, the T/C was 95 % of control (endpoint: mean survival time, dose: 25.0 mg/kg/injection, schedule: Q04DX002 (ip), vehicle: saline with Tween-80); 91 % of control (endpoint: mean survival time, dose: 50.0 mg/kg/injection, schedule: Q04DX002 (ip), vehicle: saline with Tween-80); 102 % of control under setting [8].

As to `CCOC1CS(=O)(=O)CC(OCC)O1` (stereo not drawn), the T/C is, setting by setting: under setting [3], 101 % of control; under setting [5], 109 % of control; under setting [7], 101 % of control.
